Data as given in US20230405063A1, “USE OF PROBIOTIC COMPONENT AND PHARMACEUTICAL COMPOSITION CONTAINING PROBIOTIC COMPONENT” (CHENGDU KUACHANGAOPU MEDICAL TECHNOLOGY CO., LTD., priority 2020, published 2023).

Legend:
lung tumor cells (A549) = assay: Tumor inhibition in A549 tumor-bearing nude mice, co-administration (Example 5, Table 7); format: in vivo; conditions: dosed once, 7th day, probiotic component = heat-inactivated Saccharomyces boulardii
From the text: (§1) The method for determining the effect of combined drug administration in animal experiments was Burgi method (Burgi Y. Pharmacology; Drug actions and reactions. Cancerres. 1978, 38(2), 284-285). The Burgi method was modified by Zhengjun JIN (Zhengjun JIN, Equal probability and curve and “Q50”, Journal of the Second Shanghai Medical College; 1981, 1, 75-86) with q calculated as: q=EA+B/(EA+EB−EA×EB). In the following examples of the present invention, the combinational pharmaceutical efficacies (drug efficacies) of drug A and drug B co-administration was determined by ratio q of actual pharmaceutical efficacy (drug efficacy)/theoretical pharmaceutical efficacy (drug efficacy) according to Zhengjun JIN method, as follows.
Nude mice were used as experimental subjects, and lung tumor cells (A549) were used as modeling cells, 1×10^5 cells/mouse were injected into the right axilla subcutaneously for transplantation tumor modeling, and the average tumor volume of successfully modeled nude mice was 153.7 mm^3. The model animals were randomly divided into 18 groups, and the drugs were administered according to the drug components and administration route in Table 7. Each group was dosed once with an injection volume of […]. Wherein, the probiotic component was heat-inactivated Saccharomyces boulardii, and the administration route of group 16 was intra-tumoral injection of probiotic component followed by intra-tumoral injection of 10% arginine about 2 hours later. On the 7th day after drug administration, the animals were euthanized, and after dissection, the tumor tissue was taken out to determine the tumor weight, and the tumor inhibition rate (r) was calculated relative to the negative control group. Further, the actual efficacy/expected efficacy ratio q of a drug could also be calculated according to the therapeutic effect (tumor inhibition rate).

breast cancer 4T1 cells [1] = assay: Extra-tumoral local administration in 4T1 tumor-bearing BALB/c mice, R7d/R21d (Example 11, Table 17); format: in vivo; conditions: subaxillary intradermal (extra-tumoral), twice at 7-day interval, 120 μl/mouse/time; for R7 d (relative tumor proliferation rate): day 7 after last dose; for R21 d (relative tumor proliferation rate): day 21 after last dose
Description: (§2) V=0.5×a×b^2, wherein a and b represent the length and width of the local lesion, respectively; Volume of the local lesion (e.g. tumor):
(§3) Local lesion (e.g., tumor) proliferation rate (R)=TV/CV×100, wherein TV and CV are the local lesion volumes in the study group and negative control group, respectively;
In the following examples of the present invention, the combinational pharmaceutical efficacies (drug efficacies) of drug A and drug B co-administration was determined by ratio q of actual pharmaceutical efficacy (drug efficacy)/theoretical pharmaceutical efficacy (drug efficacy) according to Zhengjun JIN method, as follows.
BALB/c mice were used as experimental subjects, and breast cancer 4T1 cells were used as modeling cells. 0.25×10^5 cells/mouse were injected into the right axilla subcutaneously for transplantation tumor modeling. On the 5th day after modeling, the test animals with visually obvious tumors were randomly divided into 12 groups, having 10 animals in each group. […] In groups 1-11, on days 7 and 21 after the last dose the tumor volume (V7d, V21d) were measured, and the relative tumor proliferation rates (R7d, R21d) were calculated relative to the negative control group on days 7 and 21 after the dose, so that the short-term therapeutic effectiveness (100%−R7d) and the medium- and long-term therapeutic effectiveness (100%−R21d) could be calculated, respectively. Further, based on the short-term therapeutic effectiveness and the medium- and long-term therapeutic effectiveness, the actual/expected ratio for short-term pharmaceutical efficacies q7d and the actual/expected ratio for medium- and long-term pharmaceutical efficacies q21d were calculated respectively.

breast cancer 4T1 cells [2] = assay: Short-term tumor inhibition in 4T1 tumor-bearing BALB/c mice (Example 9, Table 14); format: in vivo; conditions: dosed twice, 7th day after final administration; for tumor inhibition rate rA: series A: intravenous injection; for tumor inhibition rate rB: series B: intratumoral injection
From the text: as §1
BALB/c mice were used as experimental subjects, and breast cancer 4T1 cells were used as modeling cells. 0.5×10^6 cells/mouse were injected into the right axilla subcutaneously for transplantation tumor modeling, and the average tumor volume of successfully modeled nude mice was 160.1 mm^3. The model animals were randomly divided into 21 groups, and the drugs were administered by intravenous injection (series A) and intratumoral injection (series B) according to the drugs and doses in Table 14, respectively. All the drugs administered were aqueous liquids, which were formulated according to the method of Example 1. Each group was dosed twice. On the 7th day after final administration, the animals were euthanized, and the tumor tissues were taken out after dissection to determine the tumor weight, and the tumor inhibition rates rA and rB were calculated relative to the corresponding negative control groups in series A and series B.

breast cancer 4T1 cells [3] = assay: Short- and medium/long-term relative tumor proliferation rate in 4T1 tumor-bearing BALB/c mice (Example 10, Table 16); format: in vivo; conditions: intratumoral injection, dosed twice at interval of 7 days, 100 μl/mouse/time; for relative tumor proliferation rate R7 d: day 7 after last dose; for relative tumor proliferation rate R21 d: day 21 after last dose
From the text: as §2, §3, §1
BALB/c mice were used as experimental subjects, and breast cancer 4T1 cells were used as modeling cells. 0.5×10^6 cells/mouse were injected into the right axilla subcutaneously for transplantation tumor modeling, and the average tumor volume of successfully modeled nude mice was 107.4 mm^3. The model animals were randomly divided into 17 groups.
The drugs, formulated according to the method of Example 1, were administered according to Table 16. Each group was dosed twice with an interval of 7 days, and the injection volumes were 300 μl/mouse/time for groups 13 and 14, 100 μl/mouse/time for other groups. The drugs were administered by subaxillary administration of the right forelimb for group 15, and by intratumoral injection for other groups. Group 16 was administered sequentially (the first dose was aprobiotic semi-fluid-like component/cytotoxic drug/weak local acting compound, and the last dose was inactivated probiotics), while the other groups were administered with the same drug twice. On days 7 and 21 after the last dose, the tumor volumes of each group were measured (V7d, V21d), and the relative tumor proliferation rates (R7d, R21d) were calculated relative to the negative control group, respectively, so that the short-term therapeutic effectiveness (100%−R7d) and the medium- and long-term therapeutic effectiveness (100%−R21d) could be calculated, respectively.

fibroblast 3T3 cells = assay: Tumor incidence rate after 3T3 cell transplantation (S3T3) on day 30 (Example 12, Table 18); format: in vivo, BALB/c mice; conditions: cells transplanted on 30th day, observed 10th day after transplantation; for Series A S3T3 (tumor incidence rate of 3T3 cell transplantation): series A modeled mice, intratumoral injection; for Series B S3T3 (tumor incidence rate of 3T3 cell transplantation): series B unmodeled mice, intramuscular injection into right hind thigh
Description: BALB/c mice were used as experimental subjects, in which modeled animals were used as series A and unmodeled animals as series B. […] The modeled animals were randomly divided into 18 groups, with 10 animals in each group, and the drugs according to Table 18 was administered via intratumoral injection. BALB/c mice were additionally taken as experimental subjects without modeling, and randomly divided into 18 groups, with 10 animals in each group, the drugs according to Table 18 was administered via intramuscular injection into the right hind thigh. All the study drugs comprising probiotic components were formulated as aqueous formulations according to the preparation method of Example 1, and the other drugs were formulated as aqueous solutions according to the existing well-known methods. Each group was administered twice at an interval of 3 days, and the dosage was 50 ul/mouse/time.

[4] = intratumoral injection, '+' = arginine injected about 2 hours later

Structure (SMILES) | Tumor inhibition rate r (lung tumor cells (A549); [4]) | Tumor weight (x ± s) (lung tumor cells (A549); [4]) | Tumor inhibition rate r (lung tumor cells (A549); intravenous injection) | Tumor weight (x ± s) (lung tumor cells (A549); intravenous injection) | R7 d (relative tumor proliferation rate) (breast cancer 4T1 cells [1]) | R21 d (relative tumor proliferation rate) (breast cancer 4T1 cells [1]) | tumor inhibition rate rA (breast cancer 4T1 cells [2]) | tumor inhibition rate rB (breast cancer 4T1 cells [2]) | relative tumor proliferation rate R7 d (breast cancer 4T1 cells [3]) | relative tumor proliferation rate R21 d (breast cancer 4T1 cells [3]) | Series A S3T3 (tumor incidence rate of 3T3 cell transplantation) (fibroblast 3T3 cells) | Series B S3T3 (tumor incidence rate of 3T3 cell transplantation) (fibroblast 3T3 cells)
O=c1[nH]cc(F)c(=O)[nH]1 [1% 5-fluorouracil, 5-fluorouracil] | 46.6% | 0.116 ± 0.076 g | 41.3% | 0.122 ± 0.065 g | 73% | 93% | 38.1% | 44.1% | 51% | 93% | 100% | 100%
CCO [75% ethanol, ethanol] | 33.7% | 0.145 ± 0.084 g | 2.7% | 0.203 ± 0.095 g | 92% | 107% | 2.8% | 21.3% | 47% | 95% | 100% | 100%
